{"source": "ChEMBL document CHEMBL5512654", "about": "“Discovery of novel Thymol-TPP antibiotics that eradicate MRSA persisters” (Eur J Med Chem, 2024)", "key": {"Staphylococcus aureus [1]": {"test_system": "Staphylococcus aureus", "test": "Bactericidal activity against methicillin-resistant Staphylococcus aureus USA 3390 assessed as reduction in CFU at 4 times of MIC concentration measured after 24 hrs by time-kill kinetics assay", "format": "functional, organism-based"}, "Staphylococcus aureus [2]": {"test_system": "Staphylococcus aureus", "test": "Bactericidal activity against methicillin-resistant Staphylococcus aureus USA 3390 assessed as reduction in CFU at 4 times of MIC concentration measured upto 1 hrs by time-kill kinetics assay", "format": "functional"}, "Staphylococcus aureus [3]": {"test_system": "Staphylococcus aureus", "test": "Induction of cell membrane permeability in methicillin-resistant Staphylococcus aureus USA 3390 assessed as increase in leakage of 260 nm absorbing material at 1 to 8 times of MIC", "format": "functional, organism-based", "conditions": "time <= 6.0 hrs, TDE = time-dependent effect"}, "Staphylococcus aureus [4]": {"test_system": "Staphylococcus aureus", "test": "Bactericidal activity against methicillin-resistant Staphylococcus aureus USA 3390 assessed as reduction in CFU at 2 times of MIC concentration measured after 24 hrs by time-kill kinetics assay", "format": "functional, organism-based"}, "Staphylococcus aureus [5]": {"test_system": "Staphylococcus aureus", "test": "Antibacterial activity against methicillin-resistant Staphylococcus aureus USA 3390 assessed as eradication of persistence by measuring rapid killing effect 8 times of MIC concentration relative to control", "format": "functional"}, "Acinetobacter baumannii [6]": {"test_system": "Acinetobacter baumannii", "test": "Antibacterial activity against Acinetobacter baumannii ATCC 1318 assessed as inhibition of bacterial growth measured after 18 hrs by microplate reader", "format": "functional", "conditions": "read-out: MIC100"}, "Escherichia coli [7]": {"test_system": "Escherichia coli", "test": "Antibacterial activity against Escherichia coli ATCC 25922 assessed as inhibition of bacterial growth measured after 18 hrs by microplate reader", "format": "functional", "conditions": "read-out: MIC100"}, "[8]": {"test": "Cytotoxicity against human L02 cells incubated for 72 hrs by MTT dye reduction assay", "format": "toxicity, cell-based"}, "Cell membrane [9]": {"test_system": "Cell membrane", "test": "Induction of cell membrane permeability in methicillin-resistant Staphylococcus aureus USA 3390 persisters assessed as increase in leakage (DNA) of 260 nm absorbing material at 1 to 8 times of MIC measured upto 5 hrs", "format": "cell membranes"}, "Cell membrane [10]": {"test_system": "Cell membrane", "test": "Induction of plasma membrane damage in methicillin-resistant Staphylococcus aureus USA 3390 at logarithmic growth phase at 4 times of MIC measured after 1 hr by Scanning electron micrographic analysis", "format": "cell membranes"}, "Cell membrane [11]": {"test_system": "Cell membrane", "test": "Induction of cell membrane damage in methicillin-resistant Staphylococcus aureus USA 3390 assessed as increase in fluorescence intensity at 1 to 8 times of MIC concentration measured upto 120 mins by SYTOX green assay relative to control", "format": "cell membranes"}, "Staphylococcus aureus [12]": {"test_system": "Staphylococcus aureus", "test": "Bactericidal activity against methicillin-resistant Staphylococcus aureus USA 3390 assessed as reduction in CFU at 1 times of MIC concentration measured for short time by time-kill kinetics assay", "format": "functional, organism-based"}, "Staphylococcus aureus [13]": {"test_system": "Staphylococcus aureus", "test": "In vivo antibacterial efficacy in bioluminescent Staphylococcus aureus Xen29 infected in mouse topical infection model assessed as decrease in fluorescence intensity at 8 mg/kg, sc treated 16, 24, 36, 48, […] hrs post-infection measured after 84 hrs", "format": "functional, organism-based"}, "Staphylococcus aureus [14]": {"test_system": "Staphylococcus aureus", "test": "Antibacterial activity against methicillin-resistant Staphylococcus aureus USA 3390 assessed as eradication of persistence by measuring rapid killing effect 4 times of MIC concentration relative to control", "format": "functional"}, "Escherichia coli [15]": {"test_system": "Escherichia coli", "test": "Antibacterial activity against Escherichia coli 53328 assessed as inhibition of bacterial growth measured after 18 hrs by microplate reader", "format": "functional", "conditions": "read-out: MIC100"}, "Staphylococcus aureus [16]": {"test_system": "Staphylococcus aureus", "test": "Drug resistance, ratio of MIC for methicillin-resistant Staphylococcus aureus USA 3390 after […] exposure to MIC for methicillin-resistant Staphylococcus aureus USA 3390 after first exposure", "format": "functional"}, "Staphylococcus aureus [17]": {"test_system": "Staphylococcus aureus", "test": "Bactericidal activity against methicillin-resistant Staphylococcus aureus USA 3390 assessed as reduction in CFU at 1 times of MIC concentration measured after 24 hrs by time-kill kinetics assay", "format": "functional, organism-based"}, "Staphylococcus aureus [18]": {"test_system": "Staphylococcus aureus", "test": "In vivo antibacterial efficacy in bioluminescent Staphylococcus aureus Xen29 infected in mouse topical infection model assessed as reduction in number of colonies at 8 mg/kg, sc treated 16, 24, 36, 48, […] hrs post-infection measured after 84 hrs relative to control", "format": "functional"}, "Pseudomonas aeruginosa [19]": {"test_system": "Pseudomonas aeruginosa", "test": "Antibacterial activity against Pseudomonas aeruginosa ATCC 27853 assessed as inhibition of bacterial growth measured after 18 hrs by microplate reader", "format": "functional", "conditions": "read-out: MIC100"}, "Cell membrane [20]": {"test_system": "Cell membrane", "test": "Induction of cell membrane damage in methicillin-resistant Staphylococcus aureus USA 3390 assessed as rough/shrunken and wrinkled surface at logarithmic growth phase at 4 times of MIC measured after 1 hr by Scanning electron micrographic analysis", "format": "cell membranes"}, "Staphylococcus aureus [21]": {"test_system": "Staphylococcus aureus", "test": "Bactericidal activity against methicillin-resistant Staphylococcus aureus USA 3390 assessed as reduction in CFU at 2 times of MIC concentration measured upto 4 hrs by time-kill kinetics assay", "format": "functional"}, "Staphylococcus aureus [22]": {"test_system": "Staphylococcus aureus", "test": "Antibacterial activity against methicillin-resistant Staphylococcus aureus USA 3390 assessed as eradication of persistence by measuring rapid killing effect 8 times of MIC concentration measured upto 7 hrs", "format": "functional, organism-based"}, "Cell membrane [23]": {"test_system": "Cell membrane", "test": "Induction of cell membrane depolarization in methicillin-resistant Staphylococcus aureus USA 3390 assessed as increase in fluorescence intensity at 1 to 8 times of MIC concentration measured upto 60 mins by DiSC3-5 dye based fluorescence analysis", "format": "cell membranes"}, "Staphylococcus aureus [24]": {"test_system": "Staphylococcus aureus", "test": "In vivo antibacterial efficacy in bioluminescent Staphylococcus aureus Xen29 infected in mouse topical infection model assessed as wound scabbing at 8 mg/kg, sc treated 16, 24, 36, 48, […] hrs post-infection measured after 84 hrs", "format": "functional, organism-based"}, "Staphylococcus aureus [25]": {"test_system": "Staphylococcus aureus", "test": "Antibacterial activity against methicillin-resistant Staphylococcus aureus USA 3390 assessed as eradication of persistence by measuring rapid killing effect 4 times of MIC concentration measured upto 7 hrs", "format": "functional, organism-based"}, "Cell membrane [26]": {"test_system": "Cell membrane", "test": "Induction of cell membrane permeability of methicillin-resistant Staphylococcus aureus USA 3390 persisters assessed as increase in fluorescence intensity at 4 to 8 ug/ml measured at 30 mins by SYTOX green assay relative to control", "format": "cell membranes", "conditions": "dose 4-8 µg/ml"}, "Staphylococcus aureus [27]": {"test_system": "Staphylococcus aureus", "test": "Induction of cell membrane permeability in methicillin-resistant Staphylococcus aureus USA 3390 assessed as increase in leakage of 260 nm absorbing material at measured upto 6 hrs", "format": "functional, organism-based"}, "Acinetobacter baumannii [28]": {"test_system": "Acinetobacter baumannii", "test": "Antibacterial activity against Acinetobacter baumannii ATCC 19606 assessed as inhibition of bacterial growth measured after 18 hrs by microplate reader", "format": "functional", "conditions": "read-out: MIC100"}, "[29]": {"test": "Toxicity in mouse infected with bioluminescent Staphylococcus aureus Xen29 assessed as change in body weight at 8 mg/kg, sc treated 16, 24, 36, 48, […] and 72 hrs post-infection measured after 84 hrs", "format": "organism-based", "conditions": "in vivo"}, "Staphylococcus aureus [30]": {"test_system": "Staphylococcus aureus", "test": "Bactericidal activity against methicillin-resistant Staphylococcus aureus USA 3390 assessed as reduction in CFU at 4 to 8 times of MIC concentration measured after 24 hrs by time-kill kinetics assay", "format": "functional, organism-based"}, "Staphylococcus aureus [31]": {"test_system": "Staphylococcus aureus", "test": "Induction of cell membrane permeability in methicillin-resistant Staphylococcus aureus USA 3390 assessed as increase absorption in leakage of 260 nm absorbing material at 1 to 8 times of MIC measured at 4 hrs", "format": "functional, organism-based"}, "Pseudomonas aeruginosa [32]": {"test_system": "Pseudomonas aeruginosa", "test": "Antibacterial activity against Pseudomonas aeruginosa 535 assessed as inhibition of bacterial growth measured after 18 hrs by microplate reader", "format": "functional", "conditions": "read-out: MIC100"}, "Klebsiella pneumoniae [33]": {"test_system": "Klebsiella pneumoniae", "test": "Antibacterial activity against Klebsiella pneumonia ATCC 700603 assessed as inhibition of bacterial growth measured after 18 hrs by microplate reader", "format": "functional", "conditions": "read-out: MIC100"}, "Staphylococcus aureus [34]": {"test_system": "Staphylococcus aureus", "test": "Bactericidal activity against methicillin-resistant Staphylococcus aureus USA 3390 assessed as reduction in CFU at 1 times of MIC concentration measured after 1 hrs by time-kill kinetics assay", "format": "functional, organism-based"}, "Cell membrane [35]": {"test_system": "Cell membrane", "test": "Induction of cell membrane depolarization of methicillin-resistant Staphylococcus aureus USA 3390 persisters assessed as increase in fluorescence intensity at 4 to 8 ug/ml measured at 10 mins by SYTOX green assay relative to control", "format": "cell membranes", "conditions": "dose 4-8 µg/ml"}, "Klebsiella pneumoniae [36]": {"test_system": "Klebsiella pneumoniae", "test": "Antibacterial activity against Klebsiella pneumonia 3026 assessed as inhibition of bacterial growth measured after 18 hrs by microplate reader", "format": "functional", "conditions": "read-out: MIC100"}, "Cell membrane [37]": {"test_system": "Cell membrane", "test": "Induction of cell membrane damage in methicillin-resistant Staphylococcus aureus USA 3390 assessed as increase in fluorescence intensity at 1 to 8 times of MIC concentration measured at 5 mins by SYTOX green assay", "format": "cell membranes"}}, "note": "The source made the active and inactive calls. The rule behind the calls is not given here.", "data": [{"smiles": "Cc1cc(OC(=O)CCCCC[P+](c2ccccc2)(c2ccccc2)c2ccccc2)c(C(C)C)cc1-c1ccccc1.[Br-]", "values": [{"measurement": "Activity", "setting": "Staphylococcus aureus [1]", "value": "Active"}, {"measurement": "Activity", "setting": "Staphylococcus aureus [2]", "value": ">=2 log10CFU/ml"}, {"measurement": "Activity", "setting": "Staphylococcus aureus [3]", "value": "Tde"}, {"measurement": "Activity", "setting": "Staphylococcus aureus [4]", "value": "inactive"}, {"measurement": "Activity", "setting": "Staphylococcus aureus [5]", "value": 99.999, "unit": "%"}, {"measurement": "MIC", "setting": "Acinetobacter baumannii [6]", "value": 8, "unit": "µg/mL"}, {"measurement": "MIC", "setting": "Escherichia coli [7]", "value": 8, "unit": "µg/mL"}, {"measurement": "IC50 at 72 h", "setting": "[8]", "value": 34.3, "unit": "µg/mL"}, {"measurement": "Activity", "setting": "Cell membrane [9]", "value": "Active"}, {"measurement": "Activity", "setting": "Cell membrane [10]", "value": "Active"}, {"measurement": "Activity", "setting": "Cell membrane [11]", "value": "Active"}, {"measurement": "Activity", "setting": "Staphylococcus aureus [12]", "value": "Active"}, {"measurement": "Activity", "setting": "Staphylococcus aureus [13]", "value": "Active"}, {"measurement": "Activity", "setting": "Staphylococcus aureus [14]", "value": 99.99, "unit": "%"}, {"measurement": "MIC", "setting": "Escherichia coli [15]", "value": 8, "unit": "µg/mL"}, {"measurement": "Ratio", "setting": "Staphylococcus aureus [16]", "value": 4}, {"measurement": "Activity", "setting": "Staphylococcus aureus [17]", "value": "Active"}, {"measurement": "fold change (FC)", "setting": "Staphylococcus aureus [18]", "value": 10}, {"measurement": "MIC", "setting": "Pseudomonas aeruginosa [19]", "value": 32, "unit": "µg/mL"}, {"measurement": "Activity", "setting": "Cell membrane [20]", "value": "Active"}, {"measurement": "Activity", "setting": "Staphylococcus aureus [21]", "value": ">=2 log10CFU/ml"}, {"measurement": "Activity", "setting": "Staphylococcus aureus [22]", "value": "Active"}, {"measurement": "Activity", "setting": "Cell membrane [23]", "value": "Active"}, {"measurement": "Activity", "setting": "Staphylococcus aureus [24]", "value": "Active"}, {"measurement": "Activity", "setting": "Staphylococcus aureus [25]", "value": "Active"}, {"measurement": "Activity", "setting": "Cell membrane [26]", "value": "Active"}, {"measurement": "Activity", "setting": "Staphylococcus aureus [27]", "value": "Dose-Dependent Effect"}, {"measurement": "MIC", "setting": "Acinetobacter baumannii [28]", "value": 8, "unit": "µg/mL"}, {"measurement": "Activity", "setting": "[29]", "value": "Non-Toxic"}, {"measurement": "Activity", "setting": "Staphylococcus aureus [30]", "value": "Active"}, {"measurement": "Activity", "setting": "Staphylococcus aureus [31]", "value": "Active"}, {"measurement": "MIC", "setting": "Pseudomonas aeruginosa [32]", "value": 64, "unit": "µg/mL"}, {"measurement": "MIC", "setting": "Klebsiella pneumoniae [33]", "value": 8, "unit": "µg/mL"}, {"measurement": "Activity", "setting": "Staphylococcus aureus [34]", "value": "Active"}, {"measurement": "Activity", "setting": "Cell membrane [35]", "value": "Active"}, {"measurement": "MIC", "setting": "Klebsiella pneumoniae [36]", "value": 16, "unit": "µg/mL"}, {"measurement": "Activity", "setting": "Cell membrane [37]", "value": "Active"}]}]}
